The numbers were not newly measured in US20100168176A1, “NOVEL COMPOUNDS, PHARMACEUTICAL COMPOSITIONS CONTAINING SAME, AND METHODS OF USE FOR SAME” (FASGEN LLC, priority 2006, published 2010), which cites them from elsewhere.

Molecules are shown by their SMILES.

In data set [1] the test system is Mycobacterium tuberculosis. The following applies: in vitro; cited from earlier work.
Data set [2] has as its target viral HIV protease (Human immunodeficiency virus type 1 group M subtype B, UniProt P04585). The settings on record: cited from earlier work.

Consider `C/C=C/C/C=C/CCC(=O)[C@H]1O[C@H]1C(N)=O` [cerulenin, (2S,3R)-2,3-epoxy-4-oxo-7,10 dodecadienoyl amide], for which the “activity against Mycobacterium tuberculosis” value in data set [1] is given as “no activity was found”. Also, the “inhibition of viral HIV protease at” value in data set [2] was 5 mg/mL.
